From ChEMBL document CHEMBL5518186, “Discovery of the cereblon-recruiting tubulin PROTACs effective in overcoming Taxol resistance in vitro and in vivo” (Eur J Med Chem, 2024) come the findings set out here.

Common to all, as to type: functional, cell-based
Experiment [1] has as its system MCF7. Briefly: Antiproliferative activity against human MCF7 cells incubated for 72 hrs. The following applies: MCF7, 72 h.
For experiment [2], the system named is U-937. Nature of the experiment: Antiproliferative activity against human U-937 cells incubated for 72 hrs. The conditions noted are these: U-937, 72 h.
Experiment [3] concerns MGC-803. Nature of the experiment: Antiproliferative activity against human MGC-803 cells incubated for 72 hrs. The following applies: MGC-803, 72 h.
Experiment [4] has as its system A549. Briefly: Antiproliferative activity against human A549 cells incubated for 72 hrs. The following applies: A549, 72 h.
Experiment [5] concerns HeLa. Nature of the experiment: Antiproliferative activity against human HeLa cells incubated for 72 hrs.
Experiment [6] has as its system HepG2. Briefly: Antiproliferative activity against human HepG2 cells incubated for 72 hrs. The following applies: HepG2, 72 h.

What is called pIC50 is the IC50 on a negative log10 scale, so that one unit is a factor of ten. High values mean a low IC50, low ones a high IC50.

pIC50: −log10 of the molar value.

For `COc1ccc(/C=C\c2cc(OC)c(OC)c(OC)c2)cc1OC(=O)CCCCCOCCc1cn(CCCC(=O)Nc2cccc3c2C(=O)N(C2CCC(=O)NC2=O)C3=O)nn1` (centres undefined), the pIC50 in experiment [1] was 5.62; in experiment [2], less than 5.30; in experiment [3], 5.82; in experiment [4] it was 5.74; in experiment [5] it was 5.72; in experiment [6], 5.64.

For the compound `COc1ccc(/C=C\c2cc(OC)c(OC)c(OC)c2)cc1OC(=O)CCCCOCCc1cn(CCCCCC(=O)Nc2cccc3c2C(=O)N(C2CCC(=O)NC2=O)C3=O)nn1` (centres undefined), the negative logarithm of the IC50 (pIC50) in experiment [1] is 6.38; in experiment [2] it was 5.07; in experiment [3], 6.71; in experiment [4], 6.33; in experiment [5], 5.88; in experiment [6], 6.62.

`COc1ccc(/C=C\c2cc(OC)c(OC)c(OC)c2)cc1OC(=O)CCCCCOCCc1cn(CCCCC(=O)Nc2cccc3c2C(=O)N(C2CCC(=O)NC2=O)C3=O)nn1` (centres undefined): the negative logarithm of the IC50 (pIC50) was 5.63 in experiment [1]; less than 5.30 in experiment [2]; 5.85 in experiment [3]; 5.61 in experiment [4]; less than 5.30 in experiment [5]; 5.72 in experiment [6].

`COc1ccc(/C=C\c2cc(OC)c(OC)c(OC)c2)cc1OC(=O)CCCCCOCCc1cn(CCCCCC(=O)Nc2cccc3c2C(=O)N(C2CCC(=O)NC2=O)C3=O)nn1` (centres undefined): the negative-log IC50 (pIC50) was 5.64 in experiment [1]; less than 5.30 in experiment [2]; 5.75 in experiment [3]; 5.75 in experiment [4]; less than 5.30 in experiment [5]; 5.70 in experiment [6].

Consider `COc1ccc(/C=C\c2cc(OC)c(OC)c(OC)c2)cc1OC(=O)CCCOCCc1cn(CCCCC(=O)Nc2cccc3c2C(=O)N(C2CCC(=O)NC2=O)C3=O)nn1` (centres undefined), for which the negative-log IC50 (pIC50) in experiment [1], in experiment [2], in experiment [3], in experiment [4], in experiment [5] and in experiment [6] was less than 5.30 throughout.

On to `COc1ccc(/C=C\c2cc(OC)c(OC)c(OC)c2)cc1OC(=O)CCCN1C(=O)CCC(N2Cc3c(N)cccc3C2=O)C1=O` (centres undefined), for which the negative-log IC50 (pIC50) in experiment [1], in experiment [2], in experiment [3], in experiment [4], in experiment [5] and in experiment [6] was less than 5.30 each time.

As to `COc1ccc(/C=C\c2cc(OC)c(OC)c(OC)c2)cc1OC(=O)CCCCOCCc1cn(CCCCC(=O)Nc2cccc3c2C(=O)N(C2CCC(=O)NC2=O)C3=O)nn1` (centres undefined), the pIC50 in experiment [1] is 6.58; in experiment [2], 6.10; in experiment [3], 6.76; in experiment [4], 6.43; in experiment [5], 5.82; in experiment [6], 6.67.

Turning to `COc1ccc(/C=C\c2cc(OC)c(OC)c(OC)c2)cc1OC(=O)CCCCOCCc1cn(CCCC(=O)Nc2cccc3c2C(=O)N(C2CCC(=O)NC2=O)C3=O)nn1` (centres undefined), the negative logarithm of the IC50 (pIC50) in experiment [1] is 6.61; in experiment [2] it was 5.36; in experiment [3], 7.21; in experiment [4] it was 6.26; in experiment [5], 5.90; in experiment [6], 6.89.

Turning to `COc1ccc(/C=C\c2cc(OC)c(OC)c(OC)c2)cc1OC(=O)CN1C(=O)CCC(N2Cc3c(N)cccc3C2=O)C1=O` (centres undefined), the pIC50 in experiment [1], in experiment [2], in experiment [3], in experiment [4], in experiment [5] and in experiment [6] was less than 5.30 in each case.

Turning to `COc1ccc(/C=C\c2cc(OC)c(OC)c(OC)c2)cc1OC(=O)CCCCN1C(=O)CCC(N2Cc3c(N)cccc3C2=O)C1=O` (centres undefined), the pIC50 in experiment [1], in experiment [2], in experiment [3], in experiment [4], in experiment [5] and in experiment [6] was less than 5.30 each time.

As for `COc1ccc(/C=C\c2cc(OC)c(OC)c(OC)c2)cc1OCc1cn(CCCCC(=O)Nc2cccc3c2C(=O)N(C2CCC(=O)NC2=O)C3=O)nn1` (centres undefined), the negative logarithm of the IC50 (pIC50) in experiment [1] was 5.39; in experiment [2], 5.79; in experiment [3], less than 5.30; in experiment [4], less than 5.30; in experiment [5], less than 5.30; in experiment [6], less than 5.30.

For the compound `COc1ccc(/C=C\c2cc(OC)c(OC)c(OC)c2)cc1OC(=O)CCCOCCc1cn(CCCC(=O)Nc2cccc3c2C(=O)N(C2CCC(=O)NC2=O)C3=O)nn1` (centres undefined), the pIC50 was 5.37 in experiment [1]; less than 5.30 in experiment [2]; 5.63 in experiment [3]; 5.43 in experiment [4]; less than 5.30 in experiment [5]; 5.51 in experiment [6].

In the case of `COc1ccc(/C=C\c2cc(OC)c(OC)c(OC)c2)cc1OCc1cn(CCCC(=O)Nc2cccc3c2C(=O)N(C2CCC(=O)NC2=O)C3=O)nn1` (centres undefined), the negative logarithm of the IC50 (pIC50) is less than 5.30 in experiment [1]; less than 5.30 in experiment [2]; 5.91 in experiment [3]; 5.56 in experiment [4]; less than 5.30 in experiment [5]; 5.80 in experiment [6].

On to `COc1ccc(/C=C\c2cc(OC)c(OC)c(OC)c2)cc1OC(=O)CCN1C(=O)CCC(N2Cc3c(N)cccc3C2=O)C1=O` (centres undefined), for which the negative-log IC50 (pIC50) in experiment [1], in experiment [2], in experiment [3], in experiment [4], in experiment [5] and in experiment [6] was less than 5.30 in each case.

On to `COc1ccc(/C=C\c2cc(OC)c(OC)c(OC)c2)cc1OC(=O)CCCCCN1C(=O)CCC(N2Cc3c(N)cccc3C2=O)C1=O` (centres undefined), for which the pIC50 in experiment [1], in experiment [2], in experiment [3], in experiment [4], in experiment [5] and in experiment [6] was less than 5.30 each time.

In the case of `COc1ccc(/C=C\c2cc(OC)c(OC)c(OC)c2)cc1OCc1cn(CCCCCC(=O)Nc2cccc3c2C(=O)N(C2CCC(=O)NC2=O)C3=O)nn1` (centres undefined), the pIC50 in experiment [1], in experiment [2], in experiment [3], in experiment [4], in experiment [5] and in experiment [6] was less than 5.30 each time.

Consider `COc1ccc(/C=C\c2cc(OC)c(OC)c(OC)c2)cc1OC(=O)CCNc1cccc2c1C(=O)N(C1CCC(=O)NC1=O)C2=O` (centres undefined), for which the pIC50 in experiment [1], in experiment [2], in experiment [3], in experiment [4], in experiment [5] and in experiment [6] was less than 5.30 in each case.

`COc1ccc(/C=C\c2cc(OC)c(OC)c(OC)c2)cc1OC(=O)CCCOCCc1cn(CCCCCC(=O)Nc2cccc3c2C(=O)N(C2CCC(=O)NC2=O)C3=O)nn1` (centres undefined): the negative logarithm of the IC50 (pIC50) was 5.53 in experiment [1]; less than 5.30 in experiment [2]; 5.51 in experiment [3]; 5.41 in experiment [4]; less than 5.30 in experiment [5]; 5.54 in experiment [6].

As for `COc1ccc(/C=C\c2cc(OC)c(OC)c(OC)c2)cc1OC(=O)CNc1cccc2c1C(=O)N(C1CCC(=O)NC1=O)C2=O` (centres undefined), the pIC50 in experiment [1], in experiment [2], in experiment [3], in experiment [4], in experiment [5] and in experiment [6] was less than 5.30 each time.
